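Here, GI50 denotes the concentration required for 50% inhibition of growth. The concentration for full growth arrest is given as TGI.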
Columns and labels:
Assay in all cases: NCI anticancer screen, dose series, 384-well format
[1] = test system: 786-0 renal
[2] = test system: A498 renal
[3] = test system: A549 NSCLC
[4] = test system: ACHN renal
[5] = test system: CAKI-1 renal
[6] = test system: CCRF-CEM leukemia
[7] = test system: COLO 205 colon
[8] = test system: DU-145 prostate
[9] = test system: HCC-2998 colon
[10] = test system: HCT-116 colon
[11] = test system: HCT-15 colon
[12] = test system: HL-60(TB) leukemia
[13] = test system: HOP-62 NSCLC
[14] = test system: HOP-92 NSCLC
[15] = test system: HT29 colon
[16] = test system: IGROV1 ovarian
[17] = test system: K-562 leukemia
[18] = test system: KM12 colon
[19] = test system: LOX IMVI melanoma
[20] = test system: M14 melanoma
[21] = test system: MALME-3M melanoma
[22] = test system: MDA-MB-231 breast
[23] = test system: MDA-MB-435 melanoma
[24] = test system: MOLT-4 leukemia
[25] = test system: NCI-H226 lung
[26] = test system: NCI-H23 lung
[27] = test system: NCI-H322M lung
[28] = test system: NCI-H460 NSCLC
[29] = test system: NCI/ADR-RES ovarian
[30] = test system: OVCAR-3 ovarian
[31] = test system: OVCAR-4 ovarian
[32] = test system: OVCAR-5 ovarian
[33] = test system: OVCAR-8 ovarian
[34] = test system: PC-3 prostate
[35] = test system: RPMI-8226 leukemia
[36] = test system: SF-268 CNS
[37] = test system: SF-295 CNS
[38] = test system: SF-539 CNS
[39] = test system: SK-MEL-2 melanoma
[40] = test system: SK-MEL-28 melanoma
[41] = test system: SK-OV-3 ovarian
[42] = test system: SN12C renal
[43] = test system: SNB-19 CNS
[44] = test system: SW-620 colon
[45] = test system: T-47D breast
[46] = test system: TK-10 renal
[47] = test system: U251 glioblastoma
[48] = test system: UACC-257 melanoma
[49] = test system: UACC-62 melanoma
[50] = test system: UO-31 renal

Q: What does the source list for `CO[C@H]1C[C@@H]2CC[C@@H](C)[C@@](O)(O2)C(=O)C(=O)N2CCCC[C@H]2C(=O)O[C@H]([C@H](C)C[C@@H]2CC[C@@H](OP(C)(C)=O)[C@H](OC)C2)CC(=O)[C@H](C)/C=C(\C)[C@@H](O)[C@@H](OC)C(=O)[C@H](C)C[C@H](C)/C=C/C=C/C=C/1C`?
A: GI50 [1]: 11.2 µM; TGI [1]: 23.5 µM; GI50 [2]: < 0.01 µM; TGI [2]: 17.6 µM; GI50 [3]: < 0.01 µM; TGI [3]: 39.9 µM; GI50 [4]: 12.4 µM; TGI [4]: 25.2 µM; GI50 [5]: 10.5 µM; TGI [5]: 23.1 µM; GI50 [6]: 0.0126 µM; TGI [6]: 17 µM; GI50 [7]: 13.5 µM; TGI [7]: 26.5 µM; GI50 [8]: 11.3 µM; TGI [8]: 26.8 µM; GI50 [9]: 12.3 µM; TGI [9]: 24.9 µM; GI50 [10]: 12.4 µM; TGI [10]: 25.2 µM; GI50 [11]: 11.4 µM; TGI [11]: 23.9 µM; GI50 [12]: 15.3 µM; TGI [12]: 28.7 µM; GI50 [13]: 0.491 µM; TGI [13]: 21.7 µM; GI50 [14]: 12.5 µM; TGI [14]: 25.5 µM; GI50 [15]: 12.5 µM; TGI [15]: 25.2 µM; GI50 [16]: < 0.01 µM; TGI [16]: 16 µM; GI50 [17]: 11.2 µM; TGI [17]: 23.4 µM; GI50 [18]: 13.4 µM; TGI [18]: 26.6 µM; GI50 [19]: 17.5 µM; TGI [19]: 31.4 µM; GI50 [20]: 10.4 µM; TGI [20]: 22.2 µM; GI50 [21]: < 0.01 µM; TGI [21]: 21.2 µM; GI50 [22]: 12 µM; TGI [22]: 24.4 µM; GI50 [23]: 14.2 µM; TGI [23]: 27.9 µM; GI50 [24]: < 0.01 µM; TGI [24]: 11.7 µM; GI50 [25]: 12.4 µM; TGI [25]: 25.3 µM; GI50 [26]: 19.5 µM; TGI [26]: 35.2 µM; GI50 [27]: < 0.01 µM; TGI [27]: 25.3 µM; GI50 [28]: < 0.01 µM; TGI [28]: 17.4 µM; GI50 [29]: 15.4 µM; TGI [29]: 38.7 µM; GI50 [30]: 11.2 µM; TGI [30]: 23.4 µM; GI50 [31]: 12 µM; TGI [31]: 25 µM; GI50 [32]: 15.3 µM; TGI [32]: 29.8 µM; GI50 [33]: 11 µM; TGI [33]: 23.2 µM; GI50 [34]: 1.06 µM; TGI [34]: 21.3 µM; GI50 [35]: < 0.01 µM; GI50 [36]: 12.5 µM; TGI [36]: 25.3 µM; GI50 [37]: < 0.01 µM; TGI [37]: 16.6 µM; GI50 [38]: < 0.01 µM; TGI [38]: 20.7 µM; GI50 [39]: 11 µM; TGI [39]: 23 µM; GI50 [40]: 12.2 µM; TGI [40]: 24.7 µM; GI50 [41]: < 0.01 µM; TGI [41]: 20.2 µM; GI50 [42]: 14 µM; TGI [42]: 27.2 µM; GI50 [43]: 13.5 µM; TGI [43]: 26.9 µM; GI50 [44]: 14.9 µM; TGI [44]: 28.6 µM; GI50 [45]: < 0.01 µM; TGI [45]: 25 µM; GI50 [46]: 11.6 µM; TGI [46]: 28.6 µM; GI50 [47]: 4.92 µM; TGI [47]: 21.3 µM; GI50 [48]: 15.3 µM; TGI [48]: 28.7 µM; GI50 [49]: 7.86 µM; TGI [49]: 21.6 µM; GI50 [50]: < 0.01 µM; TGI [50]: 0.0198 µM

Source: PubChem BioAssay (NCI)
